According to patent US9180111B2, “Reduction in complement activation and inflammation during tissue injury by carotenoids, carotenoid analogs, or derivatives thereof” (Cardax Pharma, Inc., priority 2005, dated 2015):

What was measured:
[1] = Determination of aqueous solubility/dispersibility; type: physicochemical
Experimental: (§1) 30.13 mg of 3 was added to 1 mL of USP-purified water. The sample was rotated for 2 hours, then centrifuged for 5 minutes. After centrifuging, solid was visible in the bottom of the tube. A 125-μL aliquot of the solution was then diluted to 25 mL. The sample was analyzed by UV/Vis spectroscopy at 436 nm, and the absorbance was compared to a standard curve compiled from 4 standards of known concentration. The concentration of the original supernatant was calculated to be 2.85 mg/mL and the absorptivity was 36.94 AU*mL/cm*mg. Slight error may have been introduced by the small size of the original aliquot.
as §1, with “Next, 30.80” for “30.13”, “9” for “3”, “411” for “436”, “29.27” for “2.85”, “2.90” for “36.94”

[2] = molecular target: human serum albumin (HSA) (Homo sapiens, UniProt P02768); assay: Plasma-protein binding studies in vitro
Chain of human serum albumin (HSA) (P02768 25-609): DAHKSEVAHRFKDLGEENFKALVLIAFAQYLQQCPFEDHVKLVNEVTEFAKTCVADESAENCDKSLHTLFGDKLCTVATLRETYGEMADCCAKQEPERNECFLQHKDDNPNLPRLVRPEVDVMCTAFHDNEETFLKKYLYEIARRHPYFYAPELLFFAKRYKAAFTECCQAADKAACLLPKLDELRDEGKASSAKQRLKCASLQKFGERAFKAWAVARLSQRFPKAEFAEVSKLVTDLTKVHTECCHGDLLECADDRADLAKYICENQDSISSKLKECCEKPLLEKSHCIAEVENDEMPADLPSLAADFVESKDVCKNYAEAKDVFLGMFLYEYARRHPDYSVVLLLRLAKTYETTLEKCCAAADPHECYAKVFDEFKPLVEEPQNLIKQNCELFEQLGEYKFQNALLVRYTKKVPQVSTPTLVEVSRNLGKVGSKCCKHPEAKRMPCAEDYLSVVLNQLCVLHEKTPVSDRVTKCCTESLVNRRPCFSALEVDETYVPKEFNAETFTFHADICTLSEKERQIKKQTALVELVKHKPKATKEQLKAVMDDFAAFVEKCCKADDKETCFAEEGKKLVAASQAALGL

| solubility in water [1] | SMILES | binding to human serum albumin [2] |
| --- | --- | --- |
| insoluble in water | CC1=C(/C=C/C(C)=C/C=C/C(C)=C/C=C/C=C(C)/C=C/C=C(C)/C=C/C2=C(C)C(=O)[C@@H](O)CC2(C)C)C(C)(C)C[C@H](O)C1=O [astaxanthin, reference compound] | – |
| – | CC1=C(/C=C/C(C)=C/C=C/C(C)=C/C=C/C=C(C)/C=C/C=C(C)/C=C/C2=C(C)C(=O)C(OC(=O)CCC(=O)O)CC2(C)C)C(C)(C)CC(OC(=O)CCC(=O)O)C1=O [meso-(3R,3S)-disodium disuccinate astaxanthin derivative] | bound immediately and preferentially to human serum albumin |
